Test [1] deals with Human PDE10A (hPDE10A) (Homo sapiens (Human), UniProt Q9Y233). The experiment in a line: Measurement of PDE10 inhibitory activity (PDE assay, radiolabeled nucleotide method), human enzyme. The test is classed as biochemical. Particulars: PDE10A of human (PDE10A2 expressed in COS-7 cells); substrate 3H-cAMP, final 7 nM; room temperature 90 min. The source says:
(§1) (1) Bovine PDE10A (bPDE10A) was isolated and prepared from bovine corpus striatum, according to the methods described in the reference Fujishige et al., Eur. J. Biochem., vol. 266, pp. 1118-1127, 1999. Human PDE10A (hPDE10A) was isolated from COS-7 cells transfected with plasmids coding for human PDE10A2, according to the methods described in the reference Kotera et al., Biochem. Biophys. Res. Commun., vol. 261, pp. 551-557, 1999. The enzyme solutions obtained were used for a PDE assay.
(§2) The PDE assay was performed according to a modified method referred to a report of Kotera et al. (Kotera et al., Biochem. Pharmacol., vol. 60, pp. 1333-1341, 2000), by the radiolabeled nucleotide method.
(§3) Specifically, the measurements of the inhibitory activities were carried out in the following method.
(Method) The test compounds were dissolved in dimethyl sulfoxide (DMSO). 2 μL of the compound solution was added to 96 well plate, and the reaction mixture (20 μL of PDE enzyme solution in 50 mM Tris-HCl, pH 8.0, 40 μL of the assay buffer (50 mM Tris-HCl, pH 8.0, 2 mM MgCl2, 0.07% 2-mercaptoethanol, and 0.825 mg/mL bovine serum albumin), and 20 μL of 1 mg/mL snake venom in 50 mM Tris-HCl, pH8.0) was added to the 96 well plate. The enzyme reaction was started by adding and mixing with substrate solution of 20 μL containing approximate 35 nM ^3H-cAMP in 50 mM Tris-HCl, pH 8.0. The final concentration of cAMP in the reaction mixtures was 7 nM. The reaction mixtures were incubated at room temperature for 90 min. After incubation, the reaction was stopped by adding 100 μL of methanol and resultant solutions were applied to filter plate containing Dowex (1×8 200-400) and centrifuged. 50 μL of the eluate together with wash eluate with additional 100 μL methanol was collected in another plate and the radioactivity was measured.
(2) The compounds in the Examples below were tested for PDE inhibition using the Method described above.

Test [2] concerns the target Bovine PDE10A (bPDE10A) (Bos taurus, UniProt A0A3Q1MHJ4). The experiment in a line: Measurement of PDE10 inhibitory activity (PDE assay, radiolabeled nucleotide method), bovine enzyme. It counts as biochemical. The settings on record: PDE10A of bovine (corpus striatum); substrate 3H-cAMP, final 7 nM; room temperature 90 min.
Excerpt: as §1, §2, §3
(Method) The test compounds were dissolved in dimethyl sulfoxide (DMSO). 2 μL of the compound solution was added to 96 well plate, and the reaction mixture (20 μL of PDE enzyme solution in 50 mM Tris-HCl, pH 8.0, 40 μL of the assay buffer (50 mM Tris-HCl, pH 8.0, 2 mM MgCl2, 0.07% 2-mercaptoethanol, and 0.825 mg/mL bovine serum albumin), and 20 μL of 1 mg/mL snake venom in 50 mM Tris-HCl, pH8.0) was added to the 96 well plate. […] 50 μL of the eluate together with wash eluate with additional 100 μL methanol was collected in another plate and the radioactivity was measured. […]

Sequence of Human PDE10A (hPDE10A) (Q9Y233 267-1055): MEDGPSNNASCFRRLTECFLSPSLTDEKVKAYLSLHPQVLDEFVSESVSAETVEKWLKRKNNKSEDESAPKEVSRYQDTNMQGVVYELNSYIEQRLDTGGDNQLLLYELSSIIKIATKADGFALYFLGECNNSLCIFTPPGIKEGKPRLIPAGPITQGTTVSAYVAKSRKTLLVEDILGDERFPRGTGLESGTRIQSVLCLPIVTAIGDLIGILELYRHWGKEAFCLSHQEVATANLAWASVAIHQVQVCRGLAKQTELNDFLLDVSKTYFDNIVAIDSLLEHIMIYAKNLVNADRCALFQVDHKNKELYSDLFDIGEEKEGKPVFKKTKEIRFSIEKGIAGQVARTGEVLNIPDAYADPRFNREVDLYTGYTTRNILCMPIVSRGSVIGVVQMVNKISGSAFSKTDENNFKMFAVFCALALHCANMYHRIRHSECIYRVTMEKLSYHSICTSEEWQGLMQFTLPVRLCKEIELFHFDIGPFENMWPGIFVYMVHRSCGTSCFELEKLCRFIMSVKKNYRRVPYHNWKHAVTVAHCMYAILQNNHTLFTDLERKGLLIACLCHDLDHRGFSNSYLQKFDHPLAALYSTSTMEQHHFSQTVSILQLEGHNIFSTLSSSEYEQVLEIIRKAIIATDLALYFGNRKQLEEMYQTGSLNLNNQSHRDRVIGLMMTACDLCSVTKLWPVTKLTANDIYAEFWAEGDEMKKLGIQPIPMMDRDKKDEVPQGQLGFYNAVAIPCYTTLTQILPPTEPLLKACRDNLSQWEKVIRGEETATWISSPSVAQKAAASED
Sequence of Bovine PDE10A (bPDE10A) (A0A3Q1MHJ4 1-1068): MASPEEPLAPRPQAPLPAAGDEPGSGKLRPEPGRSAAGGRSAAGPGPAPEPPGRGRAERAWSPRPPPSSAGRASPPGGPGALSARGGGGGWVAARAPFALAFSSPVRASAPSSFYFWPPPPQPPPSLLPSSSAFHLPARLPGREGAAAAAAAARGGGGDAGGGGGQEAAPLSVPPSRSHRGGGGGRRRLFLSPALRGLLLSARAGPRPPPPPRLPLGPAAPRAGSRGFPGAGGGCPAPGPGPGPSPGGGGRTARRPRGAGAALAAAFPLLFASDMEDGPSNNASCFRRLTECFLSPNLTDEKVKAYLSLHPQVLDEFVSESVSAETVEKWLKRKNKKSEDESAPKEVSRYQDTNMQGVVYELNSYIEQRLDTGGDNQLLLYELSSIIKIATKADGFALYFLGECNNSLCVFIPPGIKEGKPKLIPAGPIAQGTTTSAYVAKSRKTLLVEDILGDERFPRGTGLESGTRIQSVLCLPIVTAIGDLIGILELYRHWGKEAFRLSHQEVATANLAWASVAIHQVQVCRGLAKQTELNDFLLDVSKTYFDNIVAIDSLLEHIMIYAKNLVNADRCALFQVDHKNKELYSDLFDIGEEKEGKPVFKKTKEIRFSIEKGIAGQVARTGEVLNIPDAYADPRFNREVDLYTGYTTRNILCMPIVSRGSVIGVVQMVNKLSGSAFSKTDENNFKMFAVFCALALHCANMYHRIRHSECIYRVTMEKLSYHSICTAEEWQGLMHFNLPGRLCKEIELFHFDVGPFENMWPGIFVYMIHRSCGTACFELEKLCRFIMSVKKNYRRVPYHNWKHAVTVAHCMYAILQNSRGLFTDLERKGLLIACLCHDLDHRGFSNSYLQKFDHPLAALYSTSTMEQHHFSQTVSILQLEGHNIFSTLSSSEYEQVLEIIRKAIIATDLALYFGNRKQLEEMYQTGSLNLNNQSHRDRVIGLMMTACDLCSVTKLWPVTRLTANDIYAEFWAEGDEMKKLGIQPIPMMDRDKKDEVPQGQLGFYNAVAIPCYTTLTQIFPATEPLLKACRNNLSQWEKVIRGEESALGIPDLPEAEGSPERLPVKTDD

By IC50 is commonly meant the concentration needed to halve the response being measured. Low values mean greater potency in that assay, high ones weaker potency in that assay. Compound `Cc1nc(C)c(C2CC2)nc1-c1cc2nc(N3CCCC3)cc(NC3CCOCC3)n2n1` [Example 1.190, 2-(6-cyclopropyl-3,5-dimethylpyrazin-2-yl)-5-pyrrolidin-1-yl-N-(tetrahydro-2H-pyran-4-yl)pyrazolo[1,5-a]pyrimidin-7-amine] had an IC50 in test [1] of 0.69 nM.

In turn, `CCCc1cnc(C)c(-c2cc3nc(N4CCCC4)cc(N(C)C4CCOCC4)n3n2)n1` [Example 1.181, N-methyl-2-(3-methyl-6-propylpyrazin-2-yl)-5-pyrrolidin-1-yl-N-(tetrahydro-2H-pyran-4-yl)pyrazolo[1,5-a]pyrimidin-7-amine] came in with a concentration for half-maximal inhibition (IC50) in test [1] of 0.64 nM.

Compound `Cc1nc2c(nc1-c1cc3nc(N4CCCC4)cc(N[C@H]4CC[C@](C)(O)CC4)n3n1)CCCO2` [Example 1.173, trans-1-methyl-4-{[2-(3-methyl-7,8-dihydro-6H-pyrano[2,3-b]pyrazin-2-yl)-5-pyrrolidin-1-ylpyrazolo[1,5-a]pyrimidin-7-yl]amino}cyclohexanol] had an IC50 in test [1] of 0.27 nM.

On to `Cc1nc2c(nc1-c1cc3nc(N4CCCC4)cc(NCC(C)(C)O)n3n1)CCCO2` [Example 1.198, 2-methyl-1-{[2-(3-methyl-7,8-dihydro-6H-pyrano[2,3-b]pyrazin-2-yl)-5-pyrrolidin-1-ylpyrazolo[1,5-a]pyrimidin-7-yl]amino}propan-2-ol], for which half-maximal inhibition in test [1] (IC50) was put at 0.82 nM.

`Cc1nc(C)c(C2CC2)nc1-c1cc2nc(N3CCCC3)cc(NCC(C)(C)O)n2n1` [Example 1.189, 1-{[2-(6-cyclopropyl-3,5-dimethylpyrazin-2-yl)-5-pyrrolidin-1-ylpyrazolo[1,5-a]pyrimidin-7-yl]amino}-2-methylpropan-2-ol] displayed an IC50 in test [1] of 0.18 nM.

As for `COCCN(CCOC)c1cc(N2CCCC2)nc2cc(-c3nc4cc(C)ccc4nc3C)nn12` [Example 1.050, 2-(3,7-dimethylquinoxalin-2-yl)-N,N-bis(2-methoxyethyl)-5-pyrrolidin-1-ylpyrazolo[1,5-a]pyrimidin-7-amine], the IC50 in test [2] stood at 0.019 nM.

As for `Cc1nc2ccc(F)cc2nc1-c1cc2nc(N3CC[C@H](F)C3)cc(N[C@H]3CC[C@@](C)(O)CC3)n2n1` [Example 1.175, cis-4-({2-(7-fluoro-3-methylquinoxalin-2-yl)-5-[(3R)-3-fluoropyrrolidin-1-yl]pyrazolo[1,5-a]pyrimidin-7-yl}amino)-1-methylcyclohexanol], it took 0.12 nM to reach half-maximal inhibition in test [1] (IC50).

`Cc1cn2nccc2nc1-c1cc2nc(N3CCCC3)cc(NCC(C)(C)O)n2n1` [Example 1.184, 2-methyl-1-[(6′-methyl-5-pyrrolidin-1-yl-2,5′-bipyrazolo[1,5-a]pyrimidin-7-yl)amino]propan-2-ol] showed an IC50 in test [1] of 2.5 nM.

`Cc1nc2c(nc1-c1cc3nc(N4CCCC4)cc(NC4CCOCC4)n3n1)CCCO2` [Example 1.197, 2-(3-methyl-7,8-dihydro-6H-pyrano[2,3-b]pyrazin-2-yl)-5-pyrrolidin-1-yl-N-(tetrahydro-2H-pyran-4-yl)pyrazolo[1,5-a]pyrimidin-7-amine] came in with an IC50 in test [1] of 2.5 nM.

In test [1], `Cc1nc2cnccc2nc1-c1cc2nc(N3CCCC3)cc(NC3CCOCC3)n2n1` [Example 5.002, 2-(3-methylpyrido[3,4-b]pyrazin-2-yl)-5-pyrrolidin-1-yl-N-(tetrahydro-2H-pyran-4-yl)pyrazolo[1,5-a]pyrimidin-7-amine] gave an IC50 of 0.28 nM.

As to `CO[C@H]1CC[C@H](Nc2cc(N3CCCC3)nc3cc(-c4nc5c(nc4C)OCCC5)nn23)CC1` [Example 1.199, N-(trans-4-methoxycyclohexyl)-2-(3-methyl-7,8-dihydro-6H-pyrano[2,3-b]pyrazin-2-yl)-5-pyrrolidin-1-ylpyrazolo[1,5-a]pyrimidin-7-amine], it took 0.89 nM to reach half-maximal inhibition in test [1] (IC50).

Take `Cc1nc2ccncc2nc1-c1cc2nc(N3CCCC3)cc(NC3CCOCC3)n2n1` [Example 5.001, 2-(2-methylpyrido[3,4-b]pyrazin-3-yl)-5-pyrrodin-1-yl-N-(tetrahydro-2H-pyran-4-yl)pyrazolo[1,5-a]pyrimidin-7-amine]: in test [1], the concentration for half-maximal inhibition (IC50) turned out to be 0.15 nM.

Regarding `Cc1nc(C)c(-c2cc3nc(N4CCCC4)cc(NCC(C)(C)O)n3n2)nc1CC(C)C` [Example 1.187, 1-{[2-(6-isobutyl-3,5-dimethylpyrazin-2-yl)-5-pyrrolidin-1-ylpyrazolo[1,5-a]pyrimidin-7-yl]amino}-2-methylpropan-2-ol], half-maximal inhibition in test [1] (IC50) required 0.6 nM.

(Values after US8969376B2, “Pyrazolopyrimidine compounds and their use as PDE10 inhibitors” (Mitsubishi Tanabe Pharma Corporation, priority 2010, dated 2015).)
